Measurements taken from patent publication US11299473B2, “Benzimidazole and indole compounds and uses thereof” (Incyte Corporation, priority 2018, dated 2022).

Target: active HPK1 (SignalChem M23-11G) (Homo sapiens (Human), UniProt Q92918)
Assay: HPK1 Kinase Binding Assay
Settings: LanthaScreen tracer 222 / Eu-Anti GST antibody, one hour incubation at 25° C.
Protocol: A stock solution of 1 mM test compound was prepared in DMSO. The compound plate was prepared by 3-fold and 11-point serial dilutions. 0.1 μL of the compound in DMSO was transferred from the compound plate to the white 384 well polystyrene plates. The assay buffer contained 50 mM HEPES, pH 7.5, 0.01% Tween-20, 5 mM MgCl2, 0.01% BSA, and 5 mM DTT. 5 μL of 4 nM active HPK1 (SignalChem M23-11G) prepared in the buffer was added to the plate. The enzyme concentration given was based on the given stock concentration reported by the vender. 5 μl of 18 nM tracer 222 (ThermoFisher PV6121) and 4 nM LanthaScreen Eu-Anti GST antibody (ThermoFisher PV5595) were added. After one hour incubation at 25° C., the plates were read on a PHERAstar FS plate reader (BMG Labtech). Ki values were determined.

Sequence of active HPK1 (SignalChem M23-11G) (Q92918 1-346 limits assumed): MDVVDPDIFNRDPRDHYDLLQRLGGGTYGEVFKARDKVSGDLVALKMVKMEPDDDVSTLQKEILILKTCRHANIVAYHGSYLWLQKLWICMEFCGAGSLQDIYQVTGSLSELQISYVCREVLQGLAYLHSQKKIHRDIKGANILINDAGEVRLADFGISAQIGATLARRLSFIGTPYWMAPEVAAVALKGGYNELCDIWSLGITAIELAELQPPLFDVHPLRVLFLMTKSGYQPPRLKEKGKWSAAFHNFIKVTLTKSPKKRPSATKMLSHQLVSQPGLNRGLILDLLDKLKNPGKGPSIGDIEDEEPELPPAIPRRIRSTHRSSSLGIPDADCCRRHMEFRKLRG

Ki, ≤ 0.1 µM:
COc1cccc(F)c1-c1nccc(C(=O)Nc2ccc3c(ccn3Cc3cnc(C)s3)c2N2C[C@@H]3C[C@H]2CN3)n1 [Example 42, N-(4-((1S,4S)-2,5-Diazabicyclo[2.2.1]heptan-2-yl)-1-((2-methylthiazol-5-yl)methyl)-1H-indol-5-yl)-2-(2-fluoro-6-methoxyphenyl)pyrimidine-4-carboxamide]
COc1cccc(F)c1-c1nccc(C(=O)Nc2ccc3c(nc(C)n3Cc3ccncc3)c2N2CC[C@H](N)C2)n1 [Example 29, (S)—N-(4-(3-Aminopyrrolidin-1-yl)-2-methyl-1-(pyridin-4-ylmethyl)-1H-benzo[d]imidazol-5-yl)-2-(2-fluoro-6-methoxyphenyl)pyrimidine-4-carboxamide]
COc1cccc(F)c1-c1nc(C(=O)Nc2ccc3c(nc(C)n3C)c2N2CCC[C@H]2CN)ccc1F [Example 34, N-(4-((S)-2-(Aminomethyl)pyrrolidin-1-yl)-1,2-dimethyl-1H-benzo[d]imidazol-5-yl)-5-fluoro-6-(2-fluoro-6-methoxyphenyl)picolinamide]
COc1cccc(F)c1-c1nccc(C(=O)Nc2ccc3c(nc(C4CCOCC4)n3C)c2N2CCC[C@H]2CN)n1 [Example 20, (S)—N-(4-(2-(Aminomethyl)pyrrolidin-1-yl)-1-methyl-2-(tetrahydro-2H-pyran-4-yl)-1H-benzo[d]imidazol-5-yl)-2-(2-fluoro-6-methoxyphenyl)pyrimidine-4-carboxamide]
COc1cccc(F)c1-c1nccc(C(=O)Nc2ccc3c(nc(C)n3C)c2N2CCC[C@H]2CN)n1 [Example 12, (S)—N-(4-(2-(Aminomethyl)pyrrolidin-1-yl)-1,2-dimethyl-1H-benzo[d]imidazol-5-yl)-2-(2-fluoro-6-methoxyphenyl)pyrimidine-4-carboxamide]
COc1cccc(F)c1-c1nccc(C(=O)Nc2ccc3c(nc(C(C)C)n3C)c2N2C[C@@H]3C[C@H]2CN3)n1 [Example 17, N-(4-((1S,4S)-2,5-Diazabicyclo[2.2.1]heptan-2-yl)-2-isopropyl-1-methyl-1H-benzo[d]imidazol-5-yl)-2-(2-fluoro-6-methoxyphenyl)pyrimidine-4-carboxamide]
COc1cccc(F)c1-c1nccc(C(=O)Nc2ccc3c(ccn3C)c2N2CCNC[C@H]2C)n1 [Example 37, (R)-2-(2-Fluoro-6-methoxyphenyl)-N-(1-methyl-4-(2-methylpiperazin-1-yl)-1H-indol-5-yl)pyrimidine-4-carboxamide]
COc1ccc(-n2ccc3c(N4C[C@@H](N)C[C@H]4CO)c(NC(=O)c4ccnc(-c5c(F)cccc5OC)n4)ccc32)c(F)c1 [Example 45, N-(4-((2S,4S)-4-Amino-2-(hydroxymethyl)pyrrolidin-1-yl)-1-(2-fluoro-4-methoxyphenyl)-1H-indol-5-yl)-2-(2-fluoro-6-methoxyphenyl)pyrimidine-4-carboxamide]
COCc1nc2c(N3CCC[C@H]3CN)c(NC(=O)c3ccnc(-c4c(F)cccc4OC)n3)ccc2n1C [Example 25, (S)—N-(4-(2-(Aminomethyl)pyrrolidin-1-yl)-2-(methoxymethyl)-1-methyl-1H-benzo[d]imidazol-5-yl)-2-(2-fluoro-6-methoxyphenyl)pyrimidine-4-carboxamide]
N#Cc1ccccc1-c1nc2c(N3C[C@H](N)C[C@H]3CO)c(NC(=O)c3ccnc(-c4c(F)cccc4F)n3)ccc2n1C1CC1 [Example 5, N-(4-((2S,4R)-4-amino-2-(hydroxymethyl)pyrrolidin-1-yl)-2-(2-cyanophenyl)-1-cyclopropyl-1H-benzo[d]imidazol-5-yl)-2-(2,6-difluorophenyl)pyrimidine-4-carboxamide]
COc1cccnc1-c1nc2c(N3C[C@H](N)C[C@H]3CO)c(NC(=O)c3ccnc(-c4c(F)cccc4F)n3)ccc2n1C [Example 3, N-(4-((2S,4R)-4-Amino-2-(hydroxymethyl)pyrrolidin-1-yl)-2-(3-methoxypyridin-2-yl)-1-methyl-1H-benzo[d]imidazol-5-yl)-2-(2,6-difluorophenyl)pyrimidine-4-carboxamide]
COc1cccc(F)c1-c1nccc(C(=O)Nc2ccc3c(ccn3-c3ccnn3C)c2N2C[C@@H](N)C[C@H]2CO)n1 [Example 46, N-(4-((2S,4S)-4-Amino-2-(hydroxymethyl)pyrrolidin-1-yl)-1-(1-methyl-1H-pyrazol-5-yl)-1H-indol-5-yl)-2-(2-fluoro-6-methoxyphenyl)pyrimidine-4-carboxamide]
CN(c1c(NC(=O)c2ccnc(-c3c(F)cccc3F)n2)ccc2c1nc(-c1c(F)cncc1F)n2C)[C@@H]1CCCNC1 [Example 6, (R)-2-(2,6-Difluorophenyl)-N-(2-(3,5-difluoropyridin-4-yl)-1-methyl-4-(methyl(piperidin-3-yl)amino)-1H-benzo[d]imidazol-5-yl)pyrimidine-4-carboxamide]
COCCc1nc2c(N3CCC[C@H]3CN)c(NC(=O)c3ccnc(-c4c(F)cccc4OC)n3)ccc2n1C [Example 26, (S)—N-(4-(2-(Aminomethyl)pyrrolidin-1-yl)-2-(2-methoxyethyl)-1-methyl-1H-benzo[d]imidazol-5-yl)-2-(2-fluoro-6-methoxyphenyl)pyrimidine-4-carboxamide]
COc1cccc(F)c1-c1nccc(C(=O)Nc2ccc3c(nc(C)n3C)c2N2CCC[C@@H]2CN)n1 [Example 13, (R)—N-(4-(2-(Aminomethyl)pyrrolidin-1-yl)-1,2-dimethyl-1H-benzo[d]imidazol-5-yl)-2-(2-fluoro-6-methoxyphenyl)pyrimidine-4-carboxamide]
COc1cccc(F)c1-c1nccc(C(=O)Nc2ccc3c(nc(-c4ccncc4F)n3C)c2N2CCOC[C@@H]2CN)n1 [Example 8, (S)—N-(4-(3-(Aminomethyl)morpholino)-2-(3-fluoropyridin-4-yl)-1-methyl-1H-benzo[d]imidazol-5-yl)-2-(2-fluoro-6-methoxyphenyl)pyrimidine-4-carboxamide]
COc1cccc(F)c1-c1nccc(C(=O)Nc2ccc3c(nc(-c4ccncc4F)n3C)c2N2CCC[C@H]2CN)n1 [Example 18, (S)—N-(4-(2-(Aminomethyl)pyrrolidin-1-yl)-2-(3-fluoropyridin-4-yl)-1-methyl-1H-benzo[d]imidazol-5-yl)-2-(2-fluoro-6-methoxyphenyl)pyrimidine-4-carboxamide]
COC[C@@H](C)n1c(C)nc2c(N3CCC[C@H]3CN)c(NC(=O)c3ccnc(-c4c(F)cccc4OC)n3)ccc21 [Example 22, N-(4-((S)-2-(Aminomethyl)pyrrolidin-1-yl)-1-((R)-1-methoxypropan-2-yl)-2-methyl-1H-benzo[d]imidazol-5-yl)-2-(2-fluoro-6-methoxyphenyl)pyrimidine-4-carboxamide]
Cc1nc2c(N3CCC[C@H]3CN)c(NC(=O)c3ccnc(-c4c(F)cccc4F)n3)ccc2n1C [Example 32, (S)—N-(4-(2-(Aminomethyl)pyrrolidin-1-yl)-1,2-dimethyl-1H-benzo[d]imidazol-5-yl)-2-(2,6-difluorophenyl)pyrimidine-4-carboxamide]
